Reference: US8192962B2, “Processes for detecting toxic substances” (Daikin Industries, Ltd., priority 2001, dated 2012)

Tested on: Genes belonging to other category
Assay: DNA chip mRNA expression in yeast, genes belonging to other category (Table 9)
Assay type: cell-based, Saccharomyces cerevisiae S288C
Procedure: Yeast (Saccharomyces cerevisiae S288C (α SUC2mal mel gap2 CUP1)) were incubated at 25° C. on YPD medium (yeast extract 1%, polypepton 2%, glucose 2%). One of toxic chemical substances was added to the cells at logarithmic growth phase, and the cells were further incubated for two hours. Cells were cultured without any chemical substance in the same condition, and were used as control. Concentrations of the chemical substances were defined to inhibit the growth of the yeast but not lead to death.
After completion of the incubation, the culture was centrifuged to collect the cells. To the cells, sodium acetate buffer (50 mM sodium acetate, 10 mM EDTA, 1% SDS) was added, and the mixture was shaken at 65° C. for five minutes, followed by returning to room temperature, and obtaining the supernatant, of which the procedures were repeated two times. To the supernatant, ½ amount of a solution of phenol/chloroform was added, and the mixture was centrifuged to give a supernatant, which was added with an equal amount of chloroform, and the mixture was centrifuged to give a supernatant. To the supernatant, an equal amount of isopropanol containing 0.3 M sodium acetate was added, and the mixture was allowed to stand at room temperature for 30 minutes, after which the mixture was centrifuged to give a sediment of the whole RNAs. Seventy % ethanol was added to the sediment, and the mixture was again centrifuged to give a sediment, which was then dried and dissolved in water. mRNA was isolated from the whole RNAs as followings. In view of the fact that a poly A chain is attached to the 3′ terminus of mRNA, a polynucleotide having a poly T structure which was immobilized on the surface of latex beads was used to trap the mRNA, and then the mRNA was washed and eluted with spine column (Oligotex-dT30<Super>mRNA Purification Kit, Takara). Reverse transcription of the mRNA was conducted with a reverse transcriptase (Super Script II Reverse Transcriptase; catalogue No. 18064-014, GibcoBRL) using fluorescence-labeled nucleotides to give cDNAs that were introduced with Cy3-dUTP or Cy5-dUTP during the reverse transcription.
The labeled cDNAs were dissolved in TE buffer (10mM Tris-HCl/1 mM EDTA, pH8.0), and the solution was dropped on the DNA chip containing the whole genes of yeast (DNA Chip Research Inc. Japan) so that the cDNAs were hybridized on the DNA chip at 65° C. for over 12 hours. The fluoresces intensity of the DNA chip was read with a scanner, and the ratio relative to the fluorescence intensity resulting from the absence of chemical substance was estimated as the following, which is shown in Tables 1 to 9: […]

Question: How did the “The level of expressed mRNA in the presence of chemical substance/The level of expressed mRNA in the absence of chemical substance” value (yeast gene YKL013C) turn out when `[Cl][Pb][Cl]` [(4), PbCl2] was run?
Answer: Its value is 1.1.

Question: What about the “The level of expressed mRNA in the presence of chemical substance/The level of expressed mRNA in the absence of chemical substance” value (yeast gene YKL039W) of the same compound?
Answer: The value was 0.8.

Question: What about the “The level of expressed mRNA in the presence of chemical substance/The level of expressed mRNA in the absence of chemical substance” value (yeast gene YKL041W) of the same compound?
Answer: Its value is 1.0.

Question: And the “The level of expressed mRNA in the presence of chemical substance/The level of expressed mRNA in the absence of chemical substance” value (yeast gene YKL096W)?
Answer: Its value is 1.6.

Question: And the “The level of expressed mRNA in the presence of chemical substance/The level of expressed mRNA in the absence of chemical substance” value (yeast gene YKL165C)?
Answer: Its value is 0.6.

Question: And the “The level of expressed mRNA in the presence of chemical substance/The level of expressed mRNA in the absence of chemical substance” value (yeast gene YKL193C)?
Answer: The value was 1.4.

Question: What about the “The level of expressed mRNA in the presence of chemical substance/The level of expressed mRNA in the absence of chemical substance” value (yeast gene YLR120C) of the same compound?
Answer: The value was 1.6.

Question: What about the “The level of expressed mRNA in the presence of chemical substance/The level of expressed mRNA in the absence of chemical substance” value (yeast gene YLR136C) of the same compound?
Answer: The value was 3.3.

Question: And the “The level of expressed mRNA in the presence of chemical substance/The level of expressed mRNA in the absence of chemical substance” value (yeast gene YLR178C)?
Answer: Its value is 4.6.

Question: What about the “The level of expressed mRNA in the presence of chemical substance/The level of expressed mRNA in the absence of chemical substance” value (yeast gene YLR250W) of the same compound?
Answer: The value was 1.4.

Question: What about the “The level of expressed mRNA in the presence of chemical substance/The level of expressed mRNA in the absence of chemical substance” value (yeast gene YLR327C) of the same compound?
Answer: Its value is 8.2.

Question: And the “The level of expressed mRNA in the presence of chemical substance/The level of expressed mRNA in the absence of chemical substance” value (yeast gene YLR356W)?
Answer: The value was 1.2.

Question: What about the “The level of expressed mRNA in the presence of chemical substance/The level of expressed mRNA in the absence of chemical substance” value (yeast gene YLR362W) of the same compound?
Answer: The value was 3.0.

Question: And the “The level of expressed mRNA in the presence of chemical substance/The level of expressed mRNA in the absence of chemical substance” value (yeast gene YLR391W)?
Answer: The value was 0.8.

Question: And the “The level of expressed mRNA in the presence of chemical substance/The level of expressed mRNA in the absence of chemical substance” value (yeast gene YLR429W)?
Answer: The value was 0.9.

Question: What about the “The level of expressed mRNA in the presence of chemical substance/The level of expressed mRNA in the absence of chemical substance” value (yeast gene YMR004W) of the same compound?
Answer: Its value is 1.3.

Question: And the “The level of expressed mRNA in the presence of chemical substance/The level of expressed mRNA in the absence of chemical substance” value (yeast gene YMR094W)?
Answer: Its value is 1.7.

Question: What about the “The level of expressed mRNA in the presence of chemical substance/The level of expressed mRNA in the absence of chemical substance” value (yeast gene YMR104C) of the same compound?
Answer: The value was 2.6.

Question: And the “The level of expressed mRNA in the presence of chemical substance/The level of expressed mRNA in the absence of chemical substance” value (yeast gene YMR219W)?
Answer: The value was 0.7.

Question: And the “The level of expressed mRNA in the presence of chemical substance/The level of expressed mRNA in the absence of chemical substance” value (yeast gene YMR226C)?
Answer: The value was 1.6.

Question: And the “The level of expressed mRNA in the presence of chemical substance/The level of expressed mRNA in the absence of chemical substance” value (yeast gene YMR275C)?
Answer: The value was 0.6.

Question: What about the “The level of expressed mRNA in the presence of chemical substance/The level of expressed mRNA in the absence of chemical substance” value (yeast gene YMR276W) of the same compound?
Answer: Its value is 0.7.

Question: And the “The level of expressed mRNA in the presence of chemical substance/The level of expressed mRNA in the absence of chemical substance” value (yeast gene YMR314W)?
Answer: The value was 1.3.

Question: And the “The level of expressed mRNA in the presence of chemical substance/The level of expressed mRNA in the absence of chemical substance” value (yeast gene YNL006W)?
Answer: The value was 1.5.

Question: What about the “The level of expressed mRNA in the presence of chemical substance/The level of expressed mRNA in the absence of chemical substance” value (yeast gene YNL007C) of the same compound?
Answer: The value was 0.8.

Question: And the “The level of expressed mRNA in the presence of chemical substance/The level of expressed mRNA in the absence of chemical substance” value (yeast gene YNL093W)?
Answer: Its value is 4.5.

Question: And the “The level of expressed mRNA in the presence of chemical substance/The level of expressed mRNA in the absence of chemical substance” value (yeast gene YNL333W)?
Answer: Its value is 2.3.

Question: What about the “The level of expressed mRNA in the presence of chemical substance/The level of expressed mRNA in the absence of chemical substance” value (yeast gene YNR010W) of the same compound?
Answer: The value was 2.8.

Question: And the “The level of expressed mRNA in the presence of chemical substance/The level of expressed mRNA in the absence of chemical substance” value (yeast gene YNR069C)?
Answer: The value was 0.4.

Question: And the “The level of expressed mRNA in the presence of chemical substance/The level of expressed mRNA in the absence of chemical substance” value (yeast gene YOL013C)?
Answer: The value was 1.5.

Question: What about the “The level of expressed mRNA in the presence of chemical substance/The level of expressed mRNA in the absence of chemical substance” value (yeast gene YOL164W) of the same compound?
Answer: Its value is 1.5.

Question: What about the “The level of expressed mRNA in the presence of chemical substance/The level of expressed mRNA in the absence of chemical substance” value (yeast gene YOR036W) of the same compound?
Answer: Its value is 1.6.

Question: What about the “The level of expressed mRNA in the presence of chemical substance/The level of expressed mRNA in the absence of chemical substance” value (yeast gene YOR117W) of the same compound?
Answer: The value was 0.8.

Question: And the “The level of expressed mRNA in the presence of chemical substance/The level of expressed mRNA in the absence of chemical substance” value (yeast gene YOR124C)?
Answer: Its value is 0.8.

Question: What about the “The level of expressed mRNA in the presence of chemical substance/The level of expressed mRNA in the absence of chemical substance” value (yeast gene YOR132W) of the same compound?
Answer: Its value is 2.8.

Question: And the “The level of expressed mRNA in the presence of chemical substance/The level of expressed mRNA in the absence of chemical substance” value (yeast gene YOR157C)?
Answer: Its value is 1.3.

Question: What about the “The level of expressed mRNA in the presence of chemical substance/The level of expressed mRNA in the absence of chemical substance” value (yeast gene YOR181W) of the same compound?
Answer: The value was 1.4.

Question: And the “The level of expressed mRNA in the presence of chemical substance/The level of expressed mRNA in the absence of chemical substance” value (yeast gene YOR185C)?
Answer: Its value is 1.1.

Question: What about the “The level of expressed mRNA in the presence of chemical substance/The level of expressed mRNA in the absence of chemical substance” value (yeast gene YOR198C) of the same compound?
Answer: The value was 1.0.

Question: And the “The level of expressed mRNA in the presence of chemical substance/The level of expressed mRNA in the absence of chemical substance” value (yeast gene YOR259C)?
Answer: The value was 0.9.

Question: What about the “The level of expressed mRNA in the presence of chemical substance/The level of expressed mRNA in the absence of chemical substance” value (yeast gene YOR261C) of the same compound?
Answer: The value was 0.9.

Question: What about the “The level of expressed mRNA in the presence of chemical substance/The level of expressed mRNA in the absence of chemical substance” value (yeast gene YOR288C) of the same compound?
Answer: Its value is 1.1.

Question: What about the “The level of expressed mRNA in the presence of chemical substance/The level of expressed mRNA in the absence of chemical substance” value (yeast gene YOR355W) of the same compound?
Answer: The value was 0.8.

Question: And the “The level of expressed mRNA in the presence of chemical substance/The level of expressed mRNA in the absence of chemical substance” value (yeast gene YOR383C)?
Answer: The value was 0.9.

Question: What about the “The level of expressed mRNA in the presence of chemical substance/The level of expressed mRNA in the absence of chemical substance” value (yeast gene YPL089C) of the same compound?
Answer: Its value is 1.8.

Question: And the “The level of expressed mRNA in the presence of chemical substance/The level of expressed mRNA in the absence of chemical substance” value (yeast gene YPL109C)?
Answer: The value was 1.2.

Question: And the “The level of expressed mRNA in the presence of chemical substance/The level of expressed mRNA in the absence of chemical substance” value (yeast gene YPL149W)?
Answer: Its value is 2.8.

Question: What about the “The level of expressed mRNA in the presence of chemical substance/The level of expressed mRNA in the absence of chemical substance” value (yeast gene YPL154C) of the same compound?
Answer: Its value is 1.2.

Question: And the “The level of expressed mRNA in the presence of chemical substance/The level of expressed mRNA in the absence of chemical substance” value (yeast gene YPR103W)?
Answer: Its value is 0.7.

Question: What about the “The level of expressed mRNA in the presence of chemical substance/The level of expressed mRNA in the absence of chemical substance” value (yeast gene YPR108W) of the same compound?
Answer: Its value is 0.6.
